The values that follow come from patent US9067926B2, “Fluoromethyl-5,6-dihydro-4H-[1,3]OXAZINES” (F. Hoffmann-La Roche AG, priority 2012, dated 2015).

Broadly, the IC50 is the point on the concentration scale where inhibition reaches its midpoint.

In this assay the target is T1, BACE1 (Homo sapiens, UniProt P56817).
T1 construct: endogenous in cells; host or cells: HEK293 APP cells
T1 sequence (P56817 46-501): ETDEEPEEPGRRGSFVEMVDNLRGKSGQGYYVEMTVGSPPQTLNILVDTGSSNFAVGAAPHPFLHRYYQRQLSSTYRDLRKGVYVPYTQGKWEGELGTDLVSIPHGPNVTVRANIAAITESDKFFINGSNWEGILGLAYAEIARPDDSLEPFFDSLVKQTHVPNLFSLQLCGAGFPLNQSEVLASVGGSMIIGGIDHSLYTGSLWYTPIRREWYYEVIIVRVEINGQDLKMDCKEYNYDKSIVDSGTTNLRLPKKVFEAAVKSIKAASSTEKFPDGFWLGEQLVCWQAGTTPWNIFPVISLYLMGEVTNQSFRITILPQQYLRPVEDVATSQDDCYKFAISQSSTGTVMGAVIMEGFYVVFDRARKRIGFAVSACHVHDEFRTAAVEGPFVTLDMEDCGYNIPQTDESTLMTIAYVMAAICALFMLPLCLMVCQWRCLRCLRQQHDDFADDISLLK
The assay can be described thus: Cellular Aβ-lowering assay (Abeta 40 AlphaLISA). The assay is classed as cell-based. To be noted: HEK293 APP cells, 18-20 hrs incubation, Aβ 40 in culture supernatant; read-out: BACE1 cell act. Aβ40 IC50. As to the method: Cellular Aβ-Lowering Assay:
The Abeta 40 AlphaLISA Assay can be used. The HEK293 APP cells were seeded in 96 well Microtiter plates in cell culture medium (Iscove's, plus 10% (vv) fetal bovine serum, penicillinstreptomycin) to about 80% confluency and the compounds were added at a 3× concentration in 13 volume of culture medium (final DMSO concentration was kept at 1% vv). After 18-20 hrs incubation at 37° C. and 5% CO2 in a humidified incubator, the culture supernatants were harvested for the determination of Aβ 40 concentrations using Perkin-Elmer Human Amyloid beta 1-40 (high specificity) Kit (Cat# AL275C).
Levels of Aβ 40 in the culture supernatants were calculated as percentage of maximum signal (cells treated with 1% DMSO without inhibitor). The IC50 values were calculated using the Excel XLfit software.
`NC1=N[C@](CF)(c2cc(NC(=O)c3ccc(Cl)cn3)ccc2F)C[C@@H](C(F)(F)F)O1` [Example 4, N-(3-((4S,6S)-2-amino-4-(fluoromethyl)-6-(trifluoromethyl)-5,6-dihydro-4H-1,3-oxazin-4-yl)-4-fluorophenyl)-5-chloropicolinamide]: the IC50 was 22 nM.

As to `COc1cnc(C(=O)Nc2ccc(F)c([C@]3(C)C[C@@H](C(F)(F)F)OC(N)=N3)c2)cn1` [Example 5, N-(3-((4S,6S)-2-amino-4-methyl-6-(trifluoromethyl)-5,6-dihydro-4H-1,3-oxazin-4-yl)-4-fluorophenyl)-5-methoxypyrazine-2-carboxamide], the IC50 came out at 5 nM.

`C[C@@]1(c2cc(NC(=O)c3cnc(OCC(F)F)cn3)ccc2F)C[C@@H](C(F)(F)F)OC(N)=N1` [Example 6, N-(3-((4S,6S)-2-amino-4-methyl-6-(trifluoromethyl)-5,6-dihydro-4H-1,3-oxazin-4-yl)-4-fluorophenyl)-5-(2,2-difluoroethoxyl)pyrazine-2-carboxamide]: the IC50 amounted to 24 nM.

Regarding `C[C@@]1(c2cc(NC(=O)c3cnc(OCC(F)(F)F)cn3)ccc2F)C[C@@H](C(F)(F)F)OC(N)=N1` [Example 7, N-(3-((4S,6S)-2-amino-4-methyl-6-(trifluoromethyl)-5,6-dihydro-4H-1,3-oxazin-4-yl)-4-fluorophenyl)-5-(2,2,2-trifluoroethoxyl)pyrazine-2-carboxamide], the IC50 came out at 15 nM.

Consider `C[C@@]1(c2cc(NC(=O)c3ccc(Cl)cn3)ccc2F)C[C@H](C(F)(F)F)OC(N)=N1` [Example 9, N-(3-((4S,6R)-2-Amino-4-methyl-6-(trifluoromethyl)-5,6-dihydro-4H-1,3-oxazin-4-yl)-4-fluorophenyl)-5-chloropicolinamide], for which the IC50 came out at 710 nM.

For the compound `C[C@@]1(c2cc(NC(=O)c3ncc(Cl)cc3Cl)ccc2F)C[C@@H](C(F)(F)F)OC(N)=N1` [Example 10, N-(3-((4S,6S)-2-Amino-4-methyl-6-(trifluoromethyl)-5,6-dihydro-4H-1,3-oxazin-4-yl)-4-fluorophenyl)-3,5-chloropicolinamide], the IC50 came to 6 nM.

Take `Cc1cc(C#N)cnc1C(=O)Nc1ccc(F)c([C@]2(C)C[C@@H](C(F)(F)F)OC(N)=N2)c1` [Example 12, N-(3-((4S,6S)-2-Amino-4-methyl-6-(trifluoromethyl)-5,6-dihydro-4H-1,3-oxazin-4-yl)-4-fluorophenyl)-5-cyano-3-methylpicolinamide]: the IC50 is 3 nM.

`C[C@@]1(c2cc(NC(=O)c3ncc(C#N)cc3Cl)ccc2F)C[C@@H](C(F)(F)F)OC(N)=N1` [Example 13, N-(3-((4S,6S)-2-Amino-4-methyl-6-(trifluoromethyl)-5,6-dihydro-4H-1,3-oxazin-4-yl)-4-fluorophenyl)-3-chloro-5-cyanopicolinamide]: the IC50 was determined as 13 nM.

In the case of `COc1ccc(C(=O)Nc2ccc(F)c([C@]3(C)C[C@@H](C(F)(F)F)OC(N)=N3)c2)nc1` [Example 14, N-(3-((4S,6S)-2-Amino-4-methyl-6-(trifluoromethyl)-5,6-dihydro-4H-1,3-oxazin-4-yl)-4-fluorophenyl)-5-methoxypicolinamide], the half-maximal inhibitory concentration (IC50) came to 2 nM.

As for `C[C@@]1(c2cc(NC(=O)c3ccc(OC(F)F)cn3)ccc2F)C[C@@H](C(F)(F)F)OC(N)=N1` [Example 15, N-(3-((4S,6S)-2-Amino-4-methyl-6-(trifluoromethyl)-5,6-dihydro-4H-1,3-oxazin-4-yl)-4-fluorophenyl)-5-(difluoromethoxy)picolinamide], the IC50 is 1 nM.

In the case of `C[C@@]1(c2cc(NC(=O)c3ccc(OC(F)(F)F)cn3)ccc2F)C[C@@H](C(F)(F)F)OC(N)=N1` [Example 16, N-(3-((4S,6S)-2-Amino-4-methyl-6-(trifluoromethyl)-5,6-dihydro-4H-1,3-oxazin-4-yl)-4-fluorophenyl)-5-(trifluoromethoxy)picolinamide], the IC50 came out at 1 nM.
